Experimental data from patent publication US20250318523A1, “Use of Pinenes to Improve Localized Insecticide Injections Targeting Western Drywood Termite (Blattodea: Kalotermitidae)” (THE REGENTS OF THE UNIVERSITY OF CALIFORNIA, priority 2024, published 2025).

How the values were obtained:
I. minor workers [1] = assay: Insecticide bioassay for fipronil (channel arena); format: in vivo; conditions: Incisitermes minor, 336 h; day 14; 10 μL of 0.06% aqueous fipronil suspension on 1.43 cm^2; pinene 100 μL of 0.1 mg/mL in methanol; read-out: final cumulative mortality
Excerpt: (§1) Termites. Western drywood termites, I. minor, were extracted from several pieces of infested wood collected in Riverside, CA. Each colony was stored in a plastic container (30.5 by 21.6 by 6.4 cm) with small pieces of basswood (150 by 100 by 3.2 mm; Midwest Products Co., Inc., Darien, IL) as a food source. A couple of small openings were made on the sides of the containers for ventilation, and the containers were placed within a larger plastic box (40.6 cm by 22.9 cm by 27.9 cm) containing a saturated NaCl solution to maintain 75% relative humidity (RH) within the larger box (Winston and Bates 1960). The stock colony boxes were kept in a growth chamber (Thermo Fisher Scientific, Waltham, MA) at 26° C. without light. […]
Insecticide Bioassay. The effect of pinenes on the efficacy of insecticide residue was evaluated using the channel arena bioassay design (FIG. 2). […]
Two different control groups were included in the experimental design: one without insecticide, and the other with insecticide. […] Termites were recorded as dead (no movement) or alive. […]
(§2) Statistical Analyses. […] The data were first analyzed with a Kaplan-Meier survival analysis for the insecticide bioassays. […]

I. minor workers [2] = assay: Channel arena bioassay; format: in vivo, Incisitermes minor; conditions: after 24 hours; pinene 1.3 μg/cm2 (100 μL of 0.1 mg/mL in methanol); 20 termites, 10 replicates
Excerpt: as §1
To establish the “initial-aggregation zone,” twenty termites were confined to a 5-cm zone at one end of the channel for 24 hours (h) using a cotton plug (FIG. 1). […] After 24 hours (h), the number of termites in the treatment zone was counted under red light (110 lux, Tacklife; Levittown, NY) to minimize any disruption to the termites during observation (Cabrera and Rust 1996). […]
as §2

I. minor workers [3] = assay: T-maze bioassay; format: in vivo, Incisitermes minor; conditions: at 24 h; for percent of termites found in the treated choice block (mean±SEM): block treated with 100 μL of 0.1 mg/mL pinene in methanol; for percent of termites found in the untreated choice block (mean±SEM): other block treated with 100 μL of 0.1 mg/mL pinene in methanol
Excerpt: Termites. Western drywood termites, I. minor, were extracted from several pieces of infested wood collected in Riverside, CA. Each colony was stored in a plastic container (30.5 by 21.6 by 6.4 cm) with small pieces of basswood (150 by 100 by 3.2 mm; Midwest Products Co., Inc., Darien, IL) as a food source. A couple of small openings were made on the sides of the containers for ventilation, and the containers were placed within a larger plastic box (40.6 cm by 22.9 cm by 27.9 cm) containing a saturated NaCl solution to maintain 75% relative humidity (RH) within the larger box (Winston and Bates 1960). The stock colony boxes were kept in a growth chamber (Thermo Fisher Scientific, Waltham, MA) at 26° C. without light. To minimize the chance of using termites that were damaged during the collection process, the collected termites were left undisturbed for at least 7 days (d), and the surviving termites at the end of this period were used in the experiments. One or two different populations were randomly chosen to set up each experimental trial. Only worker termites (approximately 5 mm in length) were used for the experiments.
Chemicals. Two monoterpenes, α-pinene (98%, Sigma-Aldrich, St. Louis, MO) and (−)-β-pinene (>99%, Sigma-Aldrich), were individually tested for their effects on drywood termite behavior. Methanol was used to dissolve the pinenes at 0.1 mg/mL concentration. Clean methanol served as a solvent-only control.
T-maze Bioassay. A T-maze bioassay was developed to study the effects of α- or β-pinene on the choice behavior of I. minor within a simplified termite gallery system. The T-maze consisted of three basswood blocks (2.54 cm by 2.54 cm by 10.16 cm). One block served as a central acclimation block, while the other two served as lateral choice blocks (FIG. 2). All blocks were drilled along the centerline to form longitudinal tunnels (8.9 cm in depth, 0.95 cm in diameter), which ended near the opposite end of the block (about 1.2 cm away from the opposite end of the block). For the acclimation block, a through hole (0.95 cm in diameter) was drilled to add a cross tunnel, perpendicularly intersecting the longitudinal tunnel at its closed end. This cross tunnel provided connection points between the acclimation block and two choice blocks.
Twenty termites from the stock colony were placed in the tunnel of the acclimation block and confined there for 24 hours (h) by sealing the holes with rubber stoppers. Two choice blocks were randomly assigned for treatment (treated block) or no treatment (untreated block). […] After 24 hours, T-mazes were disassembled, and numbers of termites in each of the three blocks (two choice blocks and one acclimation block) were recorded. […]

Compound	mortality at 100 µg/mL (I. minor workers [1]) [%]	percent of termites found in the treatment zone (mean±SEM) (I. minor workers [2]) [%]	percent of termites found in the treated choice block (mean±SEM) (I. minor workers [3]) [%]	percent of termites found in the untreated choice block (mean±SEM) (I. minor workers [3]) [%]
N#Cc1nn(-c2c(Cl)cc(C(F)(F)F)cc2Cl)c(N)c1[S+]([O-])C(F)(F)F (stereo not shown) [fipronil only, fipronil]	76.5 ± 5.7			
CC1=CCC2CC1C2(C)C (stereo not drawn) [α-pinene]		55±9.3	45.5±14.1	7.0±7.0
C=C1CC[C@H]2C[C@@H]1C2(C)C [β-pinene, (−)-β-pinene]		58±6.3	54.5±14.8	4.5±3.5
